According to patent publication US7812044B2, “Anticancer agents” (Takeda Pharmaceutical Company Limited, priority 2001, dated 2010):

How the values were obtained:
[1] = tested on: DU-145 (androgen receptor negative cell line derived from metastasis of prostate cancer); assay: Cell number of DU-145 prostate cancer cells 5 days after addition of EGF and compound; assay type: cell-based; details: DU-145, serum free, 10^-6 M compound plus EGF
Experimental: Prostate cancer cells, DU-145 (androgen receptor negative cell line derived from metastasis of prostate cancer) were seeded on a 6-well dish (1×10^5 cells/well), and cultured for 24 hours under serum free conditions. Then, EGF and 2-ethoxy-1-[[2′-(1H-tetrazol-5-yl)biphenyl-4-yl]methyl]benzimidazole-7-carboxylic acid (Compound B) were added, and 5 days after, the number of cells was counted with a hematocytometer [FIG. 1].

STAT3 [2] = assay: Phosphorylation after EGF stimulation of LNCaP cells, each concentration of compound; assay type: cell-based; details: EGF 1 ng/ml, compound 10^-6 M, 5x10^-6 M, 10x10^-6 M
MAPK [3] = assay: Phosphorylation of MAPK in LNCaP cells stimulated with EGF; assay type: cell-based; details: EGF 1 ng/ml, compound 10^-6 M added 30 minutes before
Experimental: (1) LNCaP cells (10^7 cells) were cultured in a serum-free culture medium (F-12+1 mg/ml BSA) for 24 hours, each concentration of EGF and Compound B (10^−6 M) were added, and phosphorylation of MAPK was investigated.

MAPK [4] = assay: Phosphorylation of MAPK in LNCaP cells stimulated with IL-6; assay type: cell-based; details: IL-6 25 ng/ml, compound 10^-6 M, 5x10^-6 M, 10x10^-6 M
Experimental: (3) LNCaP cells (10^7 cells) were cultured in a serum-free culture medium (F-12+1 mg/ml BSA) for 24 hours, IL-6: 25 ng/ml and each concentration of Compound B (10^−6 M, 5×10^−6 M, 10×10^−6 M) were added, and phosphorylation of MAPK was investigated.

[5] = tested on: LNCaP (androgen receptor positive cell line derived from metastasis of prostate cancer); assay: Cell number of LNCaP prostate cancer cells 5 days after addition of EGF and compound; assay type: cell-based; details: serum free, 10^-6 M compound plus EGF
Experimental: Prostate cancer cells, LNCaP (androgen receptor positive cell line derived from metastasis of prostate cancer) were seeded on a dish (1×10^5 cells/dish), and cultured for 24 hours under serum free conditions. Then, EGF and Compound B were added, and 5 days after, the number of cells was counted [FIG. 2].

STAT3 [6] = assay: Activated STAT3 in LNCaP cells, Western blotting with anti-phospho-STAT3 (Tyr705) antibody; assay type: cell-based; details: 24 h no serum, angiotensin II 1x10^-6 M or EGF 1 ng/ml
Experimental: In order to make clear the effect of angiotensin II on an cellular protein STAT3 which is one of signal transducing molecules of a growth factor and a cytokine and is said to be involved in cell growth, prostate cancer LNCaP cells were cultured for 24 hours with no serum stimulation, and then, stimulated with angiotensin II (1×10^−6 M) or EGF (1 ng/ml) already known to have growth promoting effect, and cells were collected at an appropriate time. The whole cell lysate was separated by SDS-PAGE, and then, transferred onto a PVDF membrane. Activated STAT3 and a total amount of STAT3 were confirmed by Western blotting method using an anti-phospho-STAT3 (Tyr705) antibody which recognizes only activated STAT3 (Cell Signaling Technology, 166B Cumming Center Beverly, Mass. 01915 U.S.A.: in FIG. 5, WB: PSTAT3), and a STAT3 antibody which recognizes all endogenous STAT3s (Cell Signaling Technology, 166B Cumming Center Beverly, Mass. 01915 U.S.A.: in FIG. 5, WB: STAT3) [FIG. 5]. […] That is, it has been apparent that STAT3 controlling cell growth is activated by stimulation with angiotensin II.

[7] = tested on: tyrosine phosphorylation of cellular proteins in LNCaP cells; assay: Tyrosine phosphorylation of cellular proteins in LNCaP cells, Western blotting with anti-phospho-tyrosine antibody; assay type: cell-based; details: 24 h no serum, angiotensin II 1x10^-6 M or EGF 1 ng/ml, 5 minutes
Experimental: It is already known that, when growth stimulation such as EGF is applied to cells, phosphorylation of cellular proteins is induced by activation of signal transduction pathway. Then, in order to make clear the effect of angiotensin II on prostate cancer, prostate cancer LNCaP cells were cultured for 24 hours with no serum stimulation, and then, the culture was stimulated with angiotensin II (1×10^−6 M) or EGF (1 ng/ml) which was already known to have growth promoting effect, and 5 minutes after, cells were collected. The whole cell lysate separated by SDS-PAGE, transferred onto a PVDF membrane, and then tyrosine phosphorylation of an cellular protein was observed by Western blotting method using an anti-phospho-tyrosine antibody (Upstate, 10 Old Barn Road Lake Placid, N.Y. 12946 U.S.A.) [FIG. 3]. […] That is, it is considered that stimulation with angiotensin II has the same or similar effect as that of stimulation with EGF on prostate cancer cells.

MAP kinase = assay: Activated MAP kinase in LNCaP cells, Western blotting with anti-phospho-MAP kinase antibody; assay type: cell-based; details: 24 h no serum, angiotensin II 1x10^-6 M or EGF 1 ng/ml
Experimental: In order to make clear the effect of angiotensin II on MAP kinase which is one of cellular proteins controlling cell growth, prostate cancer LNCaP cells were cultured for 24 hours with no serum stimulation, and then, stimulated with angiotensin II (1×10^−6 M) or EGF (1 ng/ml) already known to have growth promoting effect, and cells were collected at an appropriate time. The whole cell lysate was separated by SDS-PAGE, and then, transferred onto a PVDF membrane, and a total amount of cellular activated MAP kinase and MAP kinase was measured by Western blotting method using an anti-phospho-MAP kinase antibody which recognizes only activated MAP kinase (Cell Signaling Technology, 166B Cumming Center Beverly, Mass. 01915 U.S.A.: in FIG. 4, WB: PMAPK), and a MAP kinase antibody which recognizes all endogenous MAP kinases (Cell Signaling Technology, 166B Cumming Center Beverly, Mass. 01915 U.S.A.: in FIG. 4, WB: MAPK) [FIG. 4]. […] That is, it has been apparent that MAP kinase controlling cell growth is activated by stimulation of angiotensin II.

DU145 cells = assay: Tumor growth of subcutaneous DU145 tumor in nude mouse, compound in drinking water; assay type: in vivo, nude mouse (Balb/c)
Experimental: To a male 4 week-old nude mouse (Balb/c), 5×10^6 DU145 cells were subcutaneously injected on a back. After 10 days, when tumor having a diameter of 5 mm was formed (week 0), Candesartan cilexetil (Compound C) was mixed into drinking water so that Compound C could be orally taken at a dosage of 5 mg/kg day or 2.5 mg/kg day (each group: n=5). As a control group, a group (n=5) receiving no Compound C was bred at the same time. Initiation of the oral administration was regarded as week 0, each group was bred for 4 weeks, and a diameter of tumor was measured every week.

[8] = tested on: microvessels in DU145 tumor; assay: Number of microvessels in DU145 tumor of nude mouse, anti-CD31 staining; assay type: in vivo, nude mouse (Balb/c); details: 5 mg/kg/day orally, 4 weeks, magnification 400; control 72.5±9.7, P<0.02
Experimental: To a male 4 week old nude mouse (Balb/c), 5×10^6 DU145 cells were subcutaneously injected on a back. After 10 days, when tumor having a diameter of 5 mm was formed (0 week), Candesartan cilexetil (Compound C) was mixed into drinking water (each group: n=3) so that Compound C could be orally taken the an amount of 5 mg/kg/day. As a control group, a group (n=3) receiving no Compound C was bred at the same time. Initiation of the oral administration was regarded as week 0, each group was bred for 4 weeks, and thereafter, tumor was isolated, stained with an anti-CD31 antibody as described hereinafter, and the number of microvessels in tumor was examined. Under a microscope (magnification 400), four places rich in the number of microvessels were selected from a tumor solid tissue part, and the number was counted. The results are shown in [FIG. 7]. Average 72.5±9.7 vessels were recognized in one field in case of the control group, and average 37.5±3.3 vessels were recognized in one field in case of the Compound C-administered group and, thus, a significant difference was recognized between both groups (P<0.02).
Vessels in a tumor-transplanted tissue of a nude mouse were immunologically stained using an anti-mouse CD31 antibody, and the number of vessels and vascularization state were studied. Procedures were as follows: […]

With `CCOc1nc2cccc(C(=O)O)c2n1Cc1ccc(-c2ccccc2-c2nnn[nH]2)cc1` [Compound B, 2-ethoxy-1-[[2′-(1H-tetrazol-5-yl)biphenyl-4-yl]methyl]benzimidazole-7-carboxylic acid] the “reduction of the number of cells as compared with stimulation with EGF alone” value [1] was “about 12%”, the “phosphorylation of STAT3 by EGF stimulation” value (STAT3 [2]) was “inhibited in a Compound B dose dependant manner” and the “phosphorylation of MAPK by EGF stimulation” value (MAPK [3]) was “phosphorylation was inhibited”. For the same compound, the “phosphorylation of MAPK by IL-6” value (MAPK [4]) was “inhibited in a Compound B dose dependent manner” and the “reduction of the number of cells as compared with stimulation with EGF alone” value [5] was “about 22%”.

In the case of “EGF: growth factor already known to have growth promoting effect”, the “activated STAT3 (WB: PSTAT3)” value (STAT3 [6]) is reported as “activated STAT3 was increased”, the “tyrosine phosphorylation of cellular proteins” value [7] is reported as “tyrosine phosphorylation was induced” and the “activated MAP kinase (WB: PMAPK)” value (MAP kinase) is reported as “activated MAP kinase was increased”.

With `CCOc1nc2cccc(C(=O)OC(C)OC(=O)OC3CCCCC3)c2n1Cc1ccc(-c2ccccc2-c2nnn[nH]2)cc1` (centres unmarked) [Compound C, 1-(cyclohexyloxycarbonyloxy)ethyl 2-ethoxy-1-[[2′-(1H-tetrazol-5-yl)biphenyl-4-yl]methyl]benzimidazole-7-carboxylate] the “growth inhibition as compared with the control group” value (DU145 cells; 5 mg/kg/day orally, in and after week 2) was “significant difference of P<0.01”, the “tumor growth (diameter of tumor)” value (DU145 cells; 5 or 2.5 mg/kg/day orally in drinking water, from week 2, 4 weeks) was “inhibition of tumor growth was observed” and the “number of microvessels in tumor, average vessels in one field” value [8] was 37.5±3.3 vessels.

With “angiotensin II: stimulant of LNCaP cells acting on the angiotensin II receptor AT1 (DRVYIHPF; Angiotensin-2; UniProt P01019 25-32, looked up)” the “activated STAT3 (WB: PSTAT3)” value (STAT3 [6]) was “activated STAT3 was increased”, the “tyrosine phosphorylation of cellular proteins” value [7] was “tyrosine phosphorylation of the same protein by stimulation with angiotensin II was also observed” and the “activated MAP kinase (WB: PMAPK)” value (MAP kinase) was “activated MAP kinase was increased”.
